In article PMC11589570, “Critical assessment of LC3/GABARAP ligands used for degrader development and ligandability of LC3/GABARAP binding pockets” (Nature Communications, 2024):
Like-named read-outs stand apart in the source and are kept apart here.

Target: LC3B (Homo sapiens, UniProt Q9GZQ8)
Conditions: LC3B:ligand molar ratio 1:2

Q: For `Cc1ccc(C(=O)N(CCCN)[C@@H](c2nc3cc(Cl)ccc3c(=O)n2Cc2ccccc2)C(C)C)cc1` [compound 3, (R)-N-(3-aminopropyl)-N-(1-(3-benzyl-7-chloro-4-oxo-3,4-dihydroquinazolin-2-yl)−2-methylpropyl)−4-methylbenzamide], which CSP (LC3B residue A75) is on record?
A: 0.00171 ppm

Q: And the CSP (LC3B residue A78)?
A: 0.000906 ppm

Q: And the CSP (LC3B residue A114)?
A: 0.00141 ppm

Q: And the CSP (LC3B residue D19)?
A: 0.000707 ppm

Q: And the CSP (LC3B residue D48)?
A: 0.010 ppm

Q: And the CSP (LC3B residue D56)?
A: 0.00434 ppm

Q: What about the CSP (LC3B residue D104) of the same compound?
A: 0.002 ppm

Q: And the CSP (LC3B residue D106)?
A: 0.005 ppm

Q: And the CSP (LC3B residue E14)?
A: 0.00152 ppm

Q: And the CSP (LC3B residue E18)?
A: 0.003 ppm

Q: What about the CSP (LC3B residue E25) of the same compound?
A: 0.00212 ppm

Q: And the CSP (LC3B residue E36)?
A: 0.00158 ppm

Q: What about the CSP (LC3B residue E41) of the same compound?
A: 0.0011 ppm

Q: What about the CSP (LC3B residue E62) of the same compound?
A: 0.00213 ppm

Q: And the CSP (LC3B residue E97)?
A: 0.005 ppm

Q: What about the CSP (LC3B residue E100) of the same compound?
A: 0.004 ppm

Q: And the CSP (LC3B residue E102)?
A: 0.000721 ppm

Q: And the CSP (LC3B residue E105)?
A: 0.00232 ppm

Q: What about the CSP (LC3B residue E117) of the same compound?
A: 0.00224 ppm

Q: What about the CSP (LC3B residue F07) of the same compound?
A: 0.00141 ppm

Q: What about the CSP (LC3B residue F13) of the same compound?
A: 0.000721 ppm

Q: What about the CSP (LC3B residue F52) of the same compound?
A: 0.011 ppm

Q: What about the CSP (LC3B residue F108) of the same compound?
A: 0.006 ppm

Q: What about the CSP (LC3B residue F119) of the same compound?
A: 0.00255 ppm

Q: What about the CSP (LC3B residue G40, estimated) of the same compound?
A: 0.002 ppm

Q: What about the CSP (LC3B residue G107) of the same compound?
A: 0.002 ppm

Q: And the CSP (LC3B residue H27)?
A: 0.00453 ppm

Q: And the CSP (LC3B residue H57)?
A: 0.00237 ppm

Q: What about the CSP (LC3B residue I23) of the same compound?
A: 0.00158 ppm

Q: And the CSP (LC3B residue I31)?
A: 0.00281 ppm

Q: And the CSP (LC3B residue I34)?
A: 0.00571 ppm

Q: What about the CSP (LC3B residue I35) of the same compound?
A: 0.00158 ppm

Q: And the CSP (LC3B residue I64)?
A: 0.00474 ppm

Q: What about the CSP (LC3B residue I66) of the same compound?
A: 0.000721 ppm

Q: What about the CSP (LC3B residue I67) of the same compound?
A: 0.003 ppm

Q: What about the CSP (LC3B residue K08) of the same compound?
A: 0.00364 ppm

Q: And the CSP (LC3B residue K30)?
A: 0.000762 ppm

Q: What about the CSP (LC3B residue K39) of the same compound?
A: 0.00212 ppm

Q: And the CSP (LC3B residue K42)?
A: 0.00255 ppm

Q: What about the CSP (LC3B residue K49) of the same compound?
A: 0.00665 ppm

Q: What about the CSP (LC3B residue K51) of the same compound?
A: 0.00356 ppm

Q: What about the CSP (LC3B residue K65) of the same compound?
A: 0.00216 ppm

Q: What about the CSP (LC3B residue K103) of the same compound?
A: 0.00165 ppm

Q: And the CSP (LC3B residue L22)?
A: 0.002 ppm

Q: And the CSP (LC3B residue L44)?
A: 0.006 ppm

Q: And the CSP (LC3B residue L47)?
A: 0.009 ppm

Q: What about the CSP (LC3B residue L53) of the same compound?
A: 0.007 ppm

Q: And the CSP (LC3B residue L63)?
A: 0.004 ppm

Q: And the CSP (LC3B residue L71)?
A: 0.000566 ppm

Q: And the CSP (LC3B residue L73)?
A: 0.000849 ppm

Q: What about the CSP (LC3B residue L109) of the same compound?
A: 0.00144 ppm

Q: And the CSP (LC3B residue M01, estimated)?
A: 0.002 ppm

Q: And the CSP (LC3B residue M60)?
A: 0.00216 ppm

Q: And the CSP (LC3B residue M111)?
A: 0.00255 ppm

Q: What about the CSP (LC3B residue N59) of the same compound?
A: 0.009 ppm

Q: And the CSP (LC3B residue N74)?
A: 0.00173 ppm

Q: What about the CSP (LC3B residue N76) of the same compound?
A: 0.00171 ppm

Q: What about the CSP (LC3B residue P02, estimated) of the same compound?
A: 0.002 ppm

Q: And the CSP (LC3B residue P28, estimated)?
A: 0.005 ppm

Q: What about the CSP (LC3B residue P32, estimated) of the same compound?
A: 0.003 ppm

Q: And the CSP (LC3B residue P45, estimated)?
A: 0.005 ppm

Q: And the CSP (LC3B residue P55, estimated)?
A: 0.006 ppm

Q: And the CSP (LC3B residue Q09)?
A: 0.00173 ppm

Q: What about the CSP (LC3B residue Q15) of the same compound?
A: 0.00158 ppm

Q: And the CSP (LC3B residue Q26)?
A: 0.003 ppm

Q: And the CSP (LC3B residue Q43)?
A: 0.00158 ppm

Q: What about the CSP (LC3B residue Q72) of the same compound?
A: 0.00243 ppm

Q: What about the CSP (LC3B residue Q77) of the same compound?
A: 0.0011 ppm

Q: And the CSP (LC3B residue Q116)?
A: 0.00181 ppm

Q: And the CSP (LC3B residue R10)?
A: 0.00165 ppm

Q: What about the CSP (LC3B residue R11) of the same compound?
A: 0.0024 ppm

Q: What about the CSP (LC3B residue R16) of the same compound?
A: 0.00181 ppm

Q: What about the CSP (LC3B residue R21) of the same compound?
A: 0.002 ppm

Q: And the CSP (LC3B residue R24)?
A: 0.000424 ppm

Q: What about the CSP (LC3B residue R37) of the same compound?
A: 0.00181 ppm

Q: What about the CSP (LC3B residue R68) of the same compound?
A: 0.00643 ppm

Q: What about the CSP (LC3B residue R69) of the same compound?
A: 0.00362 ppm

Q: What about the CSP (LC3B residue R70) of the same compound?
A: 0.00566 ppm

Q: What about the CSP (LC3B residue S03, estimated) of the same compound?
A: 0.002 ppm

Q: And the CSP (LC3B residue S61)?
A: 0.00376 ppm

Q: And the CSP (LC3B residue S96)?
A: 0.004 ppm

Q: What about the CSP (LC3B residue S101) of the same compound?
A: 0.00148 ppm

Q: What about the CSP (LC3B residue S115) of the same compound?
A: 0.00122 ppm

Q: What about the CSP (LC3B residue T06) of the same compound?
A: 0.00255 ppm

Q: What about the CSP (LC3B residue T12) of the same compound?
A: 0.006 ppm

Q: And the CSP (LC3B residue T29, estimated)?
A: 0.002 ppm

Q: And the CSP (LC3B residue T50)?
A: 0.008 ppm

Q: What about the CSP (LC3B residue T118) of the same compound?
A: 0.00152 ppm

Q: What about the CSP (LC3B residue V17) of the same compound?
A: 0.0011 ppm

Q: What about the CSP (LC3B residue V20) of the same compound?
A: 0.00281 ppm

Q: And the CSP (LC3B residue V33)?
A: 0.00472 ppm

Q: And the CSP (LC3B residue V46)?
A: 0.00449 ppm

Q: And the CSP (LC3B residue V54)?
A: 0.009 ppm

Q: And the CSP (LC3B residue V58)?
A: 0.00542 ppm

Q: What about the CSP (LC3B residue V98) of the same compound?
A: 0.00173 ppm

Q: And the CSP (LC3B residue V112)?
A: 0.00638 ppm

Q: And the CSP (LC3B residue Y38)?
A: 0.00165 ppm

Q: And the CSP (LC3B residue Y99)?
A: 0.00144 ppm

Q: What about the CSP (LC3B residue Y110) of the same compound?
A: 0.00214 ppm

Q: What about the CSP (LC3B residue Y113) of the same compound?
A: 0.00232 ppm
